Measured values: ChEMBL document CHEMBL1150919, “The inhibition of the reverse transcriptase of HIV-1 by the natural sulfoglycolipids from cyanobacteria: contribution of different moieties to their high potency” (J Nat Prod, 1998)
pIC50: −log10 of the molar value.

Legend:
[1] = target: Human immunodeficiency virus type 1 reverse transcriptase (Human immunodeficiency virus 1) (UniProt Q72547); assay: (§1) Inhibition of HIV1 reverse transcriptase activity assessed as residual enzyme activity by poly(rA)n.oligo(dT)12-18-directed incorporation of [3H]dTTP into DNA
[2] = target: Human immunodeficiency virus type 1 reverse transcriptase (Human immunodeficiency virus 1, UniProt Q72547); assay: as §1
[3] = tested on: Human immunodeficiency virus 1; assay: Inhibition of HIV1 RNase H activity assessed as residual enzyme activity by poly(rA)n.oligo(dT)12-18-directed incorporation of [3H]dTTP into DNA at 100 uM relative to control
[4] = Inhibition of HIV2 reverse transcriptase-mediated DNA polymerase activity; set-up: species or system Human immunodeficiency virus 2

SMILES	IC90 [1] [µM]	pIC50 [2]	Activity [3] [%]	pIC50 [4]
CCCCC/C=C\C/C=C\CCCCCCCC(=O)OC[C@H](CO[C@@H]1O[C@H](CO[C@H]2O[C@H](CO)[C@H](O)[C@H](OC(=O)CCCCCCCCCCCCCCC)[C@H]2O)[C@H](O)[C@H](O)[C@H]1O)OC(=O)CCCCCCCCCCCCCCC	> 100	4.00	100	–
CCCCCCCC/C=C\CCCCCCCC(=O)OC[C@H](CO[C@@H]1O[C@H](CO)[C@H](O)[C@H](O)[C@H]1O)OC(=O)CCCCCCCCCCCCCCC	> 100	4.19	100	–
O=S(=O)(O)C[C@H]1O[C@H](OC[C@H](O)CO)[C@H](O)[C@@H](O)[C@@H]1O	> 100	4.12	–	–
OC[C@@H](O)CO[C@@H]1O[C@H](CO)[C@H](O)[C@H](O)[C@H]1O	–	< 4.00	–	–
OC[C@@H](O)CO[C@@H]1O[C@H](CO[C@H]2O[C@H](CO)[C@H](O)[C@H](O)[C@H]2O)[C@H](O)[C@H](O)[C@H]1O	–	< 4.00	–	–
OC[C@@H](O)CO[C@H]1O[C@H](CO)[C@@H](O)[C@H](O)[C@H]1O	–	< 4.00	–	–
CCCCCCCCCCCCCCCC(=O)OC[C@H](CO[C@@H]1O[C@H](CO)[C@H](O)[C@H](O)[C@H]1O)OC(=O)CCCCCCCCCCCCCCC	> 100	< 4.00	100	–

The next compounds have a higher pIC50 [2] than those just listed; values first:

IC90 [1] [µM]	pIC50 [2]	Activity [3] [%]	pIC50 [4]	SMILES
0.076	7.62	66	7.47	CCCCCCCC/C=C\CCCCCCCC(=O)OC[C@H](CO[C@H]1O[C@H](CS(=O)(=O)O)[C@@H](O)[C@H](O)[C@H]1O)OC(=O)CCCCCCCCCCCCCCC
0.28	7.11	100	–	CCCCC/C=C\C/C=C\CCCCCCCC(=O)OC[C@H](CO[C@H]1O[C@H](CS(=O)(=O)O)[C@@H](O)[C@H](O)[C@H]1O)OC(=O)CCCCCCCCCCCCCCC
14	5.53	100	–	CCCCC/C=C\C/C=C\CCCCCCCC(=O)OC[C@H](CO[C@H]1O[C@H](CS(=O)(=O)O)[C@@H](O)[C@H](OC(=O)CCCCCCCCCCCCCCC)[C@H]1OC(=O)CCCCCCCCCCCCCCC)OC(=O)CCCCCCCCCCCCCCC
0.465	6.95	45	–	CCCCCCCCCCCCCCCC(=O)OC[C@H](CO[C@H]1O[C@H](CS(=O)(=O)O)[C@@H](O)[C@H](O)[C@H]1O)OC(=O)CCCCCCCCCCCCCCC
> 100	4.42	100	–	CCCCC/C=C\C/C=C\CCCCCCCC(=O)OC[C@H](CO[C@@H]1O[C@H](CO)[C@H](O)[C@H](O)[C@H]1O)OC(=O)CCCCCCCCCCCCCCC
